Active and inactive are the calls of the source. The calls are words filed in the database; no cut-off is given here.
Key:
[1] = tested on: Staphylococcus aureus; assay: Antimicrobial activity against Staphylococcus aureus assessed as visible growth at 0.25 ug/ml after 24 hrs in presence of 20 uM paraquat; type: functional, organism-based
[2] = tested on: Staphylococcus aureus; assay: Antimicrobial activity against Staphylococcus aureus assessed as visible growth at 0.35 ug/ml after 24 hrs; type: functional, organism-based
[3] = tested on: Staphylococcus aureus; assay: Antimicrobial activity against Staphylococcus aureus assessed as visible growth at 0.45 ug/ml after 24 hrs in presence of 20 uM paraquat; type: functional, organism-based
[4] = tested on: Staphylococcus aureus; assay: Antimicrobial activity against Staphylococcus aureus assessed as visible growth at 0.55 ug/ml after 24 hrs; type: functional, organism-based
[5] = tested on: Staphylococcus aureus; assay: Antimicrobial activity against Staphylococcus aureus assessed as visible growth at 0.75 ug/ml after 24 hrs; type: functional, organism-based
[6] = tested on: Staphylococcus aureus; assay: Antimicrobial activity against Staphylococcus aureus assessed as visible growth at 0.75 ug/ml after 24 hrs in presence of 20 uM paraquat; type: functional, organism-based
[7] = tested on: Staphylococcus aureus; assay: Antimicrobial activity against Staphylococcus aureus expressing mgrA C12S mutant gene assessed as visible growth at 0.35 ug/ml after 24 hrs in presence of 20 uM paraquat; type: functional, organism-based
[8] = tested on: Staphylococcus aureus; assay: Antimicrobial activity against Staphylococcus aureus expressing mgrA C12S mutant gene assessed as visible growth at 0.55 ug/ml after 24 hrs; type: functional, organism-based
[9] = tested on: Staphylococcus aureus; assay: Antimicrobial activity against Staphylococcus aureus expressing mgrA C12S mutant gene assessed as visible growth at 0.65 ug/ml after 24 hrs in presence of 20 uM paraquat; type: functional, organism-based
[10] = tested on: Staphylococcus aureus; assay: Antimicrobial activity against Staphylococcus aureus expressing mgrA C12S mutant gene assessed as visible growth at 0.20 ug/ml after 24 hrs in presence of 25 uM paraquat; type: functional, organism-based
[11] = tested on: Staphylococcus aureus; assay: Antimicrobial activity against Staphylococcus aureus expressing mgrA C12S mutant gene harboring Pyj335-His-mgrA assessed as visible growth at 0.20 ug/ml after 24 hrs in presence of 25 uM paraquat; type: functional, organism-based
[12] = tested on: Staphylococcus aureus; assay: Antimicrobial activity against Staphylococcus aureus expressing mgrA C12S mutant gene harboring plasmid Pyj335 assessed as visible growth at 0.25 ug/ml after 24 hrs; type: functional, organism-based
[13] = tested on: Staphylococcus aureus; assay: Antimicrobial activity against Staphylococcus aureus expressing mgrA C12S mutant gene harboring plasmid Pyj335 assessed as visible growth at 0.25 ug/ml after 24 hrs in presence of 20 uM paraquat; type: functional, organism-based
[14] = tested on: Staphylococcus aureus; assay: Antimicrobial activity against Staphylococcus aureus expressing mgrA C12S mutant gene harboring plasmid Pyj335 assessed as visible growth at 0.45 ug/ml after 24 hrs in presence of 20 uM paraquat; type: functional, organism-based
[15] = tested on: Staphylococcus aureus; assay: Antimicrobial activity against Staphylococcus aureus expressing mgrA C12S mutant gene harboring plasmid Pyj335 assessed as visible growth at 0.65 ug/ml after 24 hrs in presence of 20 uM paraquat; type: functional, organism-based
[16] = tested on: Staphylococcus aureus; assay: Antimicrobial activity against Staphylococcus aureus expressing mgrA C12S mutant gene harboring plasmid Pyj335 assessed as visible growth at 0.75 ug/ml after 24 hrs in presence of 20 uM paraquat; type: functional, organism-based
[17] = tested on: Staphylococcus aureus; assay: Antimicrobial activity against Staphylococcus aureus expressing mgrA C12S mutant gene harboring Pyj335-His-mgrA assessed as visible growth at 0.35 ug/ml after 24 hrs in presence of 20 uM paraquat; type: functional, organism-based
[18] = tested on: Staphylococcus aureus; assay: Antimicrobial activity against Staphylococcus aureus expressing mgrA C12S mutant gene harboring Pyj335-His-mgrA assessed as visible growth at 0.55 ug/ml after 24 hrs; type: functional, organism-based
[19] = tested on: Staphylococcus aureus; assay: Antimicrobial activity against Staphylococcus aureus expressing mgrA C12S mutant gene harboring Pyj335-His-mgrA assessed as visible growth at 0.65 ug/ml after 24 hrs in presence of 20 uM paraquat; type: functional, organism-based
[20] = tested on: Staphylococcus aureus; assay: Antimicrobial activity against Staphylococcus aureus expressing mgrA C12S mutant gene harboring Pyj335-His-mgrA assessed as visible growth at 0.75 ug/ml after 24 hrs; type: functional, organism-based
[21] = tested on: Staphylococcus aureus; assay: Antimicrobial activity against Staphylococcus aureus expressing mgrA C12S mutant gene harboring Pyj335-His-mgrA assessed as visible growth at 2.6 ug/ml after 24 hrs in presence of 20 uM paraquat; type: functional, organism-based
[22] = tested on: Staphylococcus aureus; assay: Antimicrobial activity against Staphylococcus aureus assessed as visible growth at 1 ug/ml after 24 hrs in presence of 20 uM paraquat; type: functional, organism-based
[23] = tested on: Staphylococcus aureus; assay: Antimicrobial activity against Staphylococcus aureus assessed as visible growth at 1.4 ug/ml after 24 hrs in presence of 20 uM paraquat; type: functional, organism-based
[24] = tested on: Staphylococcus aureus; assay: Antimicrobial activity against Staphylococcus aureus assessed as visible growth at 1.8 ug/ml after 24 hrs; type: functional, organism-based
[25] = tested on: Staphylococcus aureus; assay: Antimicrobial activity against Staphylococcus aureus expressing mgrA C12S mutant gene assessed as visible growth at 0.6 ug/ml after 24 hrs; type: functional, organism-based
[26] = tested on: Staphylococcus aureus; assay: Antimicrobial activity against Staphylococcus aureus expressing mgrA C12S mutant gene assessed as visible growth at 1 ug/ml after 24 hrs; type: functional, organism-based
[27] = tested on: Staphylococcus aureus; assay: Antimicrobial activity against Staphylococcus aureus expressing mgrAC12S mutant gene harboring plasmid Pyj335-His-mgrA C12S assessed as highest concentration at which growth was visible after 24 hrs; type: functional
[28] = tested on: Staphylococcus aureus; assay: Antimicrobial activity against Staphylococcus aureus expressing mgrA C12S mutant gene harboring plasmid Pyj335 assessed as visible growth at 1.1 ug/ml after 24 hrs; type: functional, organism-based
[29] = tested on: Staphylococcus aureus; assay: Antimicrobial activity against Staphylococcus aureus expressing mgrAC12S mutant gene assessed as visible growth at 1.1 ug/ml after 24 hrs in presence of 100 uM hydrogen peroxide; type: functional, organism-based
[30] = tested on: Staphylococcus aureus; assay: Antimicrobial activity against Staphylococcus aureus assessed as visible growth at 1.1 ug/ml after 24 hrs in presence of 100 uM hydrogen peroxide; type: functional, organism-based
[31] = tested on: Staphylococcus aureus; assay: Antimicrobial activity against Staphylococcus aureus expressing mgrA C12S mutant gene assessed as visible growth at 1.8 ug/ml after 24 hrs; type: functional, organism-based
[32] = tested on: Staphylococcus aureus; assay: Antimicrobial activity against Staphylococcus aureus expressing mgrA C12S mutant gene assessed as visible growth at 1.8 ug/ml after 24 hrs in presence of 20 uM paraquat; type: functional, organism-based
[33] = tested on: Staphylococcus aureus; assay: Antimicrobial activity against Staphylococcus aureus expressing mgrA C12S mutant gene assessed as visible growth at 2.2 ug/ml after 24 hrs; type: functional, organism-based
[34] = tested on: Staphylococcus aureus; assay: Antimicrobial activity against Staphylococcus aureus expressing mgrA C12S mutant gene harboring plasmid Pyj335 assessed as visible growth at 2.6 ug/ml after 24 hrs in presence of 20 uM paraquat; type: functional, organism-based
[35] = tested on: Staphylococcus aureus; assay: Antimicrobial activity against Staphylococcus aureus expressing mgrA C12S mutant gene harboring Pyj335-His-mgrA assessed as visible growth at 0.6 ug/ml after 24 hrs in presence of 20 uM paraquat; type: functional, organism-based
[36] = tested on: Staphylococcus aureus; assay: Antimicrobial activity against Staphylococcus aureus expressing mgrA C12S mutant gene harboring Pyj335-His-mgrA assessed as visible growth at 1 ug/ml after 24 hrs; type: functional, organism-based
[37] = tested on: Staphylococcus aureus; assay: Antimicrobial activity against Staphylococcus aureus expressing mgrA C12S mutant gene harboring Pyj335-His-mgrA assessed as visible growth at 1.4 ug/ml after 24 hrs; type: functional, organism-based
[38] = tested on: Staphylococcus aureus; assay: Antimicrobial activity against Staphylococcus aureus expressing mgrA C12S mutant gene harboring Pyj335-His-mgrA assessed as visible growth at 1.4 ug/ml after 24 hrs in presence of 20 uM paraquat; type: functional, organism-based
[39] = tested on: Staphylococcus aureus; assay: Antimicrobial activity against Staphylococcus aureus expressing mgrA C12S mutant gene harboring Pyj335-His-mgrA assessed as visible growth at 2.2 ug/ml after 24 hrs; type: functional, organism-based

With `O=C(O)c1cn(C2CC2)c2cc(N3CCNCC3)c(F)cc2c1=O` [CIPROFLOXACIN] as the compound, how does the Activity [1] read?
Its Activity is “inactive”.

And the Activity [2]?
Its Activity is “Active”.

And the Activity [3]?
Its Activity is “inactive”.

What about the Activity [4] of the same compound?
The Activity was “Active”.

What about the Activity [5] of the same compound?
The Activity was “Active”.

What about the Activity [6] of the same compound?
The Activity was “Active”.

And the Activity [7]?
Its Activity is “inactive”.

What about the Activity [8] of the same compound?
The Activity was “inactive”.

What about the Activity [9] of the same compound?
Its Activity is “inactive”.

What about the Activity [10] of the same compound?
The Activity was “inactive”.

What about the Activity [11] of the same compound?
Its Activity is “Active”.

And the Activity [12]?
The Activity was “inactive”.

And the Activity [13]?
Its Activity is “inactive”.

And the Activity [14]?
The Activity was “inactive”.

What about the Activity [15] of the same compound?
Its Activity is “inactive”.

What about the Activity [16] of the same compound?
The Activity was “Active”.

And the Activity [17]?
Its Activity is “inactive”.

What about the Activity [18] of the same compound?
The Activity was “Active”.

What about the Activity [19] of the same compound?
The Activity was “Active”.

And the Activity [20]?
Its Activity is “Active”.

Which Activity [21] does the source give for `CN[C@H](CC(C)C)C(=O)N[C@H]1C(=O)N[C@@H](CC(N)=O)C(=O)N[C@H]2C(=O)N[C@H]3C(=O)N[C@H](C(=O)N[C@H](C(=O)O)c4cc(O)cc(O)c4-c4cc3ccc4O)[C@H](O)c3ccc(c(Cl)c3)Oc3cc2cc(c3O[C@@H]2O[C@H](CO)[C@@H](O)[C@H](O)[C@H]2O[C@H]2C[C@](C)(N)[C@H](O)[C@H](C)O2)Oc2ccc(cc2Cl)[C@H]1O` [VANCOMYCIN] here?
The Activity was “Active”.

What about the Activity [22] of the same compound?
The Activity was “inactive”.

And the Activity [23]?
Its Activity is “inactive”.

What about the Activity [24] of the same compound?
Its Activity is “Active”.

What about the Activity [25] of the same compound?
Its Activity is “inactive”.

What about the Activity [26] of the same compound?
The Activity was “inactive”.

What about the Activity [27] of the same compound?
Its Activity is 1 µg/mL.

What about the Activity [28] of the same compound?
The Activity was “inactive”.

What about the Activity [29] of the same compound?
Its Activity is “inactive”.

And the Activity [30]?
Its Activity is “Active”.

What about the Activity [31] of the same compound?
Its Activity is “inactive”.

What about the Activity [32] of the same compound?
Its Activity is “inactive”.

And the Activity [33]?
The Activity was “inactive”.

What about the Activity [34] of the same compound?
The Activity was “Active”.

What about the Activity [35] of the same compound?
Its Activity is “inactive”.

What about the Activity [36] of the same compound?
Its Activity is “inactive”.

And the Activity [37]?
Its Activity is “Active”.

And the Activity [38]?
Its Activity is “inactive”.

And the Activity [39]?
The Activity was “Active”.

Reference: ChEMBL document CHEMBL1240316, “An oxidation-sensing mechanism is used by the global regulator MgrA in Staphylococcus aureus” (2006)
